Source: patent publication US20260042764A1, “COMPOSITIONS AND METHODS FOR INHIBITION OF KRAS” (TheRas, Inc., priority 2022, published 2026)

How the values were obtained:
[1] = biological target: T1, Avi-KRAS G12D (1-169) GppNHp/RAF1 RBD-3xFLAG (52-151) (Homo sapiens, UniProt P01116, G12D); assay: Raf1-KRAS G12D-GppNHP disruption HTRF assay (Biological Example 1); assay type: binding
T1 construct: Avi-KRAS G12D (1-169)
In short: (§1)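 Compound disruption of KRAS-GppNHp/RAF1 RBD binding read by HTRF after two sequential 1 h room-temperature incubations (protein mix, then detection reagents), shaken at 700 rpm. Buffer Tris pH 7.5 with MgCl2, BSA, Tween and 10% DMSO; results given as percent activity relative to DMSO (100%).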

[2] = biological target: T2, Avi-KRAS G12R (1-169) GppNHp/RAF1 RBD-3xFLAG (52-151) (Homo sapiens, UniProt P01116, G12R); assay: Raf1-KRAS G12R-GppNHP disruption HTRF assay (Biological Example 1); assay type: binding
T2 construct: Avi-KRAS G12R (1-169)
T2 sequence (P01116 1-169 isoform P01116-2 G12R): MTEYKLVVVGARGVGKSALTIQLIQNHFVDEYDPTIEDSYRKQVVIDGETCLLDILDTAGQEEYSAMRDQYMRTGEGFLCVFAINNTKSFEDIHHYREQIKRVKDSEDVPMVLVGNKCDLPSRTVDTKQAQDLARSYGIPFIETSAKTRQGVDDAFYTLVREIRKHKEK
In short: as §1

[3] = biological target: T3, Avi-KRAS G12V (1-169) GppNHp/RAF1 RBD-3xFLAG (52-151) (Homo sapiens, UniProt P01116, G12V); assay: Raf1-KRAS G12V-GppNHP disruption HTRF assay (Biological Example 1); assay type: binding
T3 construct: Avi-KRAS G12V (1-169)
T3 sequence (P01116 1-169 isoform P01116-2 G12V): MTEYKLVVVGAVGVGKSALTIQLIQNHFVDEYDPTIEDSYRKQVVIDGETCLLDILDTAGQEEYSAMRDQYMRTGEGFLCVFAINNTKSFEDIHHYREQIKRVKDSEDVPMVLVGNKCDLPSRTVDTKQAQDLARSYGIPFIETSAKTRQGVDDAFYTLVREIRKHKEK
In short: as §1

[4] = biological target: T4, Avi-KRAS WT (1-169) GppNHp/RAF1 RBD-3xFLAG (52-151) (Homo sapiens, UniProt P01116); assay: Raf1-KRAS WT-GppNHP disruption HTRF assay (Biological Example 1); assay type: binding
T4 construct: Avi-KRAS WT (1-169)
T4 sequence (P01116 1-169 isoform P01116-2): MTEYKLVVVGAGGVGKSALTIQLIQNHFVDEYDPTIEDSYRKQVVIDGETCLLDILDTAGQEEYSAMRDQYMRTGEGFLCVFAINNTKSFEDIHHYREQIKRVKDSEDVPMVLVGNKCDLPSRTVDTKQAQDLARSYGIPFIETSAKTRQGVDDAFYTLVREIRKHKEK
In short: as §1

GP2d cells (KRAS G12D) = assay: Cell-based pERK HTRF assay in GP2d cell (Biological Example 2); settings: GP2d, GP2d (KRAS G12D) cells, pERK HTRF
In short: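 Cells grown in DMEM with 10% FBS were exposed to compound for 60 min at 0.25% DMSO, using a 9-point half-log series starting at 1 μM or 100 nM. Lysates were then mixed with d2 and Eu cryptate antibodies for 4–24 h at room temperature, and pERK was read by HTRF.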

SW620 cells (KRAS G12V) = assay: Cell-based pERK HTRF assay in SW620 cell (Biological Example 4); settings: Homo sapiens, SW-620, SW620 (KRAS G12V) cells, pERK HTRF
In short: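 SW620 seeded in RPMI/10% FBS, next day dosed 4 h (top 1 μM, half-log, 9 pts, 0.25% DMSO). Lysed, pERK by d2/Eu cryptate HTRF, 4–24 h RT, 615 nm read.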

[5] = KRAS G12D, GppNHp-loaded, class symbols
[6] = KRAS G12R, GppNHp-loaded, class symbols
[7] = KRAS G12V, GppNHp-loaded, class symbols
[8] = KRAS WT, GppNHp-loaded, class symbols
[9] = KRAS G12D, GppNHp-loaded, Table 11
[10] = KRAS G12R, GppNHp-loaded, Table 11
[11] = KRAS G12V, GppNHp-loaded, Table 11
[12] = KRAS WT, GppNHp-loaded, Table 11

T1 sequence (P01116 1-169 isoform P01116-2 G12D): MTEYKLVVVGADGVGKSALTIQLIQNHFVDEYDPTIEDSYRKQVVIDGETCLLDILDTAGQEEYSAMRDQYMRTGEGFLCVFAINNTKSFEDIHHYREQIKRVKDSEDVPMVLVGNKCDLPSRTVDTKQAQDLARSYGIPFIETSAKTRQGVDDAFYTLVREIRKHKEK

Compound	IC50 [1, 5]	IC50 [2, 6]	IC50 [3, 7]	IC50 [4, 8]	IC50 (GP2d cells (KRAS G12D); class symbols)	IC50 (SW620 cells (KRAS G12V); class symbols)	IC50 ([1]; KRAS G12D-GppNHp/RAF1 RBD HTRF)	IC50 ([2]; KRAS G12R-GppNHp/RAF1 RBD HTRF)	IC50 ([3]; KRAS G12V-GppNHp/RAF1 RBD HTRF)	IC50 ([4]; KRAS WT-GppNHp/RAF1 RBD HTRF)	IC50 (GP2d cells (KRAS G12D))	IC50 (SW620 cells (KRAS G12V))	IC50 [1, 9]	IC50 [2, 10]	IC50 [3, 11]	IC50 [4, 12]
CCN(c1nc(OC[C@@]23CCCN2C[C@H](F)C3)nc2c(F)c(-c3ccc(F)c4sc(N)c(C#N)c34)c(C(F)(F)F)cc12)[C@H]1CCN(C(=O)OC2CC2)C1 (atropisomer, axis not shown) [Compound 599]	< 100 nM	< 100 nM	< 100 nM	< 100 nM	< 100 nM	< 100 nM										
N#Cc1c(N)sc2c(F)ccc(-c3c(C(F)(F)F)cc4c(N5C[C@@H]6C[C@H]5CS6(=O)=O)nc(OC[C@@]56CCCN5C[C@H](F)C6)nc4c3F)c12 [Compound 319]							100 to 1000 nM	1000 to 10000 nM	1000 to 10000 nM	1000 to 10000 nM	100 to 1000 nM	100 to 1000 nM				
CCN(c1nc(OC[C@@]23CCCN2C[C@H](F)C3)nc2c(F)c(-c3ccc(F)c4sc(N)c(C#N)c34)c(C(F)(F)F)cc12)[C@H]1C[C@@H](COC)N(C(=O)OC)C1 (atropisomer, axis not shown) [Compound 714]	100 to 1000 nM	100 to 1000 nM	100 to 1000 nM	100 to 1000 nM	< 100 nM	< 100 nM										
C[C@@H]1[C@H](N(C)c2nc(OC[C@@]34CCCN3C[C@H](F)C4)nc3c(F)c(-c4ccc(F)c5sc(N)c(C#N)c45)c(Cl)cc23)CCN1C(=O)C1(F)CC1 [Compound 422]							1000 to 10000 nM	1000 to 10000 nM	1000 to 10000 nM	1000 to 10000 nM	100 to 1000 nM	100 to 1000 nM				
CC(=O)N1CC[C@H](N(C)c2nc(OC[C@@H]3CCCN3C)nc3c(F)c(-c4ccc(F)c5sc(N)c(C#N)c45)c(C(F)(F)F)cc23)[C@@H]1C [Compound 239]											> 1000 nM	> 1000 nM	> 10000 nM	> 10000 nM	> 10000 nM	> 10000 nM
CN1CCN(c2nc(OC[C@@]34CCCN3C[C@H](F)C4)nc3c(F)c(-c4ccc(F)c5sc(N)c(C#N)c45)c(C(F)(F)F)cc23)CCS1(=O)=O [Compound 311]							> 10000 nM	> 10000 nM	> 10000 nM	> 10000 nM	> 1000 nM	> 1000 nM				
C[C@H]1[C@@H](N(C)c2nc(OC[C@@]34CCCN3C[C@H](F)C4)nc3c(F)c(-c4ccc(F)c5sc(N)c(C#N)c45)c(C(F)(F)F)cc23)CCN1C(=O)CO [Compound 240]											100 to 1000 nM	> 1000 nM	1000 to 10000 nM	1000 to 10000 nM	1000 to 10000 nM	1000 to 10000 nM

Further lines, results first:

IC50 [1, 5]	IC50 [2, 6]	IC50 [3, 7]	IC50 [4, 8]	IC50 (GP2d cells (KRAS G12D); class symbols)	IC50 (SW620 cells (KRAS G12V); class symbols)	IC50 ([1]; KRAS G12D-GppNHp/RAF1 RBD HTRF)	IC50 ([2]; KRAS G12R-GppNHp/RAF1 RBD HTRF)	IC50 ([3]; KRAS G12V-GppNHp/RAF1 RBD HTRF)	IC50 ([4]; KRAS WT-GppNHp/RAF1 RBD HTRF)	IC50 (GP2d cells (KRAS G12D))	IC50 (SW620 cells (KRAS G12V))	IC50 [1, 9]	IC50 [2, 10]	IC50 [3, 11]	IC50 [4, 12]	Compound
						100 to 1000 nM	1000 to 10000 nM	1000 to 10000 nM	100 to 1000 nM	< 100 nM	< 100 nM					CCC(=O)N1CC[C@@H](N(C)c2nc(OC[C@@]34CCCN3C[C@H](F)C4)nc3c(F)c(-c4ccc(F)c5sc(N)c(C#N)c45)c(C(F)(F)F)cc23)[C@@H]1C [Compound 299]
										< 100 nM	100 to 1000 nM	100 to 1000 nM	100 to 1000 nM	100 to 1000 nM	100 to 1000 nM	N#Cc1c(N)sc2c(F)ccc(-c3c(C(F)(F)F)cc4c(N5CCNC(=O)CC5)nc(OC[C@@]56CCCN5C[C@H](F)C6)nc4c3F)c12 [Compound 251]
						100 to 1000 nM	100 to 1000 nM	1000 to 10000 nM	100 to 1000 nM	< 100 nM	< 100 nM					N#Cc1c(N)sc2c(F)ccc(-c3c(C(F)(F)F)cc4c(N5C[C@H]6C[C@H](O)[C@@H]5C6)nc(OC[C@@]56CCCN5C[C@H](F)C6)nc4c3F)c12 [Compound 361]
						100 to 1000 nM	100 to 1000 nM	100 to 1000 nM	100 to 1000 nM	< 100 nM	< 100 nM					CCN(c1nc(OC[C@@]23CCCN2C[C@H](F)C3)nc2c(F)c(-c3ccc(F)c4sc(N)c(C#N)c34)c(C(F)(F)F)cc12)[C@@H]1CCN(C(=O)C2CC2)[C@@H]1C [Compound 406]
